Data: patent publication US20140309184A1, “METHODS AND COMPOSITIONS FOR THE TREATMENT OF OVARIAN CANCER” (UNIVERSITY OF SOUTH ALABAMA, priority 2011, published 2014)
Entries after “also recorded” stand apart in the source; their conditions may differ.

Legend:
[1] = MTD for combination therapy; type: in vivo; details: in vivo; BMS-833923 + carboplatin given together; previously demonstrated
From the text: Treatment with BMS-833923 appeared to have little effect on the growth of A2780 xenografts in vivo.

GLI1 [2] = assay: Localization of Gli1 by immunofluorescent staining in SKOV3 cells; type: cell-based; details: SKOV3, 24 hours treatment
Method: Considering intranuclear Gli1 confers an activated Hh pathway, SKOV3 cells were evaluated for Gli1 location after BMS-833923 treatment and compared to control (no treatment). Cells were grown on Poly-L-Lysine coated Glass Coverslips (BD Bioscience) for overnight, then incubated with 5 μM BMS-833923 for 24 hours, respectively, fixed in 4% paraformaldehyde for 15 minutes at room temperature, washed with PBS and permeabilized with 0.25% Triton X-100 (Sigma) for 10 minutes. Primary antibody (Anti-human Gli1 antibody, Santa Cruz Biotechnology, Inc.) incubation followed for overnight at 4° C. After washing thoroughly with PBS, cells were further probed with secondary antibody (anti-rabbit IgG-FITC, Sigma) for one hour at room temperature. Nuclei were counterstained with diluted DAPI (Sigma) for 3 minutes before mounting and analyzing with microscope.
SKOV3 cells were treated with 2.5 μBMS-833923 and the cellular location of Gli1 determined at various times using immunofluorescence. Immunofluorescence analysis was performed as described above. In untreated control cell, Gli1 is concentrated in the nucleus at 24 hrs, indicating an activated Hh pathway. […] Both indicating restriction of Gli1 from the nucleus and inhibition of Hh pathway.

OV90 OCSC (CD44+/CD24-) = assay: Matrigel invasion assay of CD44+/CD24- ovarian cancer stem cells; type: cell-based; details: 2.5 μM, 24 hours
Method: (§1) Fluorescence-activated cell sorting (FACS) was performed in order to sort into 2 distinct phenotypes: 1) ovarian cancer stem cell phenotype (OCSC=CD44+/CD24−) and 2) non-ovarian cancer stem cells (non-OCSC=all other phenotypes). Each ovarian cancer phenotype was evaluated for invasion properties using the Matrigel invasion assay for the SKOV3 and OV90 cell lines. Matrigel™-coated chamber (BD Pharmingen) were rehydrated for 2 hours in humidified tissue culture incubator at 37° C., 5% CO2. After rehydration, the medium was carefully removed without disturbing the layer of Matrigel Matrix on the membrane. The cell suspension was prepared in serum-free medium containing 10^5 cells/mL. The lower chambers of the 24-well plate were filled with 750 μL serum-free medium containing 10 μg/mL fibronectin as a chemotactic factor. […] The cells were then fixed, stained and counted. Numbers of invaded cells at least 10 consecutive fields were enumerated and their average was calculated. Data are expressed as the number of migrating cells per field. Three groups were evaluated: 1) non-OCSC; 2) OCSC; 3) OCSC plus BMS833923 treatment.
(§2) One aggressive property of cancer includes the ability to invade tissues locally. Therefore, the ability of Ovarian Cancer Stem Cells (OCSC) with CD44+/CD24− phenotype to invade via Matrigel invasion assay was evaluated. […]

SKOV3 OCSC (CD44+/CD24-) = assay: as above; type: cell-based; details: 2.5 μM, 24 hours
Method: as §1, §2

A2780 xenografts = assay: Xenograft tumor growth, carboplatin-sensitive model; type: in vivo; details: SCID mice; BMS-833923 100 mg/kg i.p. daily, Carboplatin 40 mg/kg i.p. twice a week, two weeks
Method: (§3) Female SCID mice 6-8 weeks old were inoculated i.p. with 5×10^6 A2780 or A2780/CP70 cells suspended in 200 μL PBS (PH 7.4). Seven days later when the tumor reached a size of greater than 150 mm^3, the mice were randomly divided into 4 groups (8 mice per group) as follows: (1) PBS-treated control; (2) BMS-833923 alone (100 mg/kg, i.p. daily, two weeks); (3) Carboplatin alone (40 mg/kg, i.p. twice a week, two weeks); (4) Combination of BMS-833923 and Carboplatin treatment. Mice were weighed and tumor diameters were measured with calipers every 2-3 days for 20 days. The tumor volumes (mm^3) were calculated as (W^2×L)/2, where W and L are the minor and major diameters (in millimeters), respectively.
(§4) Xenograft experiments were performed as described above. Carboplatin was dosed days 7, 11, 14, 18; BMS-833923 was dosed days 8 through 20. The experiment was terminated due to excessive tumor size in vehicle and BMS-833923 treatment groups.

CP2780 xenografts = assay: Xenograft tumor growth, carboplatin-resistant model; type: in vivo; details: SCID mice; BMS-833923 100 mg/kg i.p. daily, Carboplatin 40 mg/kg i.p. twice a week, two weeks
Method: as §3, §4
The CP2780 was derived from the A2780 Ovarian tumor xenograft model by selection for resistance to cisplatin. The CP2780 growth appeared to be more robust than observed for parental A2780 model (FIG. 12B). Average tumor volume doubling time for CP2780 was estimated at 2 days. Doubling time for parental A2780 tumor model was estimated at 3 days. […]

PTCH = assay: Quantitative RT-PCR of Hedgehog pathway mediators in SKOV3 cells; type: cell-based
Method: (§5) Total RNA was isolated using Trizol reagent from ovarian cancer cell line monolayer and spheroids-forming cells according to the manufacturer instructions (Invitrogen Corporation, Carlsbad, Calif.) and cDNA was prepared using High Capacity Reverse Transcriptase Kit (Applied Biosystem, Foster City, Calif.). Real-time PCR was performed using a Bio-Rad iQ5 Real-time Detection system (Bio-Rad). All reactions were done as three independent replicates. All assays were done using the TaqMan Gene Expression Assays from Applied Biosystems. Primers and probes for the TaqMan system were selected from the Applied Biosystems website. [Gli1 assay ID: Hs01110766 ml, Patched (PTCH) assay ID: Hs00970980 ml. The relative expression mRNA levels of GLI1, and PTCH were normalized to internal control glyceraldehyde-3-phosphate dehydrogenase (assay ID: Hs99999905 ml) levels (2^−δδCT).
(§6) Quantitative realtime PCR (RT-PCR) was performed as described above. To assess the effects of inhibition of SMO by BMS-833923, levels of GLI1 and PTCH were measured by quantitative RT-PCR. SKOV3 ovarian cancer cell line was treated with 2.5 μM BMS-833923 for 24 hr and 48 hr and compared to untreated controls.

GLI1 [3] = assay: as above; type: cell-based
Method: as §5, §6

With `CNCc1ccc(C)c(NC(=O)c2ccc(Nc3nc(-c4ccccc4)c4ccccc4n3)cc2)c1` [BMS-833923, N-{2-methyl-5-[(methylamino)methyl]phenyl}-4-[(4-phenylquinazolin-2-yl)amino]benzamide] the MTD [1] was 100 mg/kg, the “cellular location of Gli1” value (GLI1 [2]) was “near complete exclusion of intranuclear GLl1; also recorded: Gli1 being excluded from the nucleus” and the “invasive properties of OCSC (number of cells invaded)” value (OV90 OCSC (CD44+/CD24-)) was “lower than non-OCSCs”. The “invasive properties of OCSC (number of cells invaded)” value (SKOV3 OCSC (CD44+/CD24-)) was “lower than non-OCSCs”, the “effect on growth of A2780 xenografts in vivo” value (A2780 xenografts) was “little effect” and the “effect on growth of CP2780 (A2780/CP70) xenografts in vivo” value (CP2780 xenografts) was “little effect”. For the same compound, the “PTCH activity compared to untreated controls” value (PTCH; SKOV3, 2.5 μM, 24 hr and 48 hr) was “down-regulation in activity”, the “downregulation of PTCH protein compared to untreated controls” value (PTCH; as stated in the description) was 3 fold and the “decrease in GLI1 activity (RTQ)” value (GLI1 [3]; SKOV3, 2.5 μM, 24 hr and 48 hr, vs untreated) was 10 fold. For the same compound, the “downregulation of GLI1 protein compared to untreated controls” value (GLI1 [3]; as stated in the description) was 5 fold.
